Results from patent US20070166547A1, “Use of a layer consisting of hydrophobic linear, or two-dimensional polycyclic aromatics as a barrier layer or an encapsulation and electric components constructed with a layer of this type and comprising organic polymers” (priority 2003, published 2007).
Each block holds one compound with its values, some of them ahead of it.

Tests used:
[1] = Polarographic study of electrochemical reduction (electrochemical activity); type: physicochemical; conditions: for half-wave potential more positive on reverse stroke than on forward stroke: reverse stroke vs forward stroke; for number of electrons participating in the reduction: calculated with the Geirovsky-Ilkovich equation; for i, mkA (polarographic wave current) / −E1/2, V (half-wave potential vs SCE): 37° C., forward trace, average for the group; for i, mkA (polarographic wave current): 9·10^−4 M
Experimental: The study was carried out on a general-purpose polarograph PU-1 with a two-coordinate recorder of the “LKD” type using a three-electrode thermostatically controlled polarographic cell and mercury dripping electrode (MDE) with forced separation of the drop and a dropping period of 0.5 second. A platinum wire was used as an auxiliary electrode and a saturated calomel electrode (SCE) was used as a control electrode.
2.0% solutions of sodium chloride having pH 7.0, 7.2, 7.4, 7.6 were used as a background; the pH values of the background solution were corrected by a solution of sodium hydroxide. The polarographic cell was filled with 5.0 ml of the background solution and for 5 minutes was purged with nitrogen for removing the dissolved oxygen. Then 0.5 ml of solution of the studied substance was added to the background solution, and the polarogram was recorded as a polarographic wave. The concentration of the compounds in the polarographic cell was 9·10^−4 M.
The pH was measured on the pH-meter with an accuracy of ±0.05 pH units. The polarographic measurements were carried out at a temperature of 37° C. The recording of polarograms of the investigated materials was effected under conditions of DC current at a scanning rate of the potential 10.0 mV/s with a active scanning stroke from a potential 0 to −0.5 V and sweep retrace from a −0.5 V to 0. The electric-current sensitivity was 5.0 mkA. The scale by the coordinate of the potentials was 50.0 mV/cm. The values of potentials of the half-wave E1/2 of the investigated materials are given with respect to the SCE potential.
The polarogram parameters such as a limiting current ilim and E1/2 were determined by the graphic method. The number of electrons participating in the reaction was calculated on the basis of the analysis of the polarographic wave using the Geirovsky-Ilkovich equation.

[2] = Chronic toxicity, rectal suppositories: indexes of peripheral blood; conditions: male rats; for Basophiles / Juveniles: 1 month/2 months (one value given)
Experimental: The experiments were conducted on inbred rats. The experimental animals were selected in groups by a method of random sampling taking into account the body mass as a determining index; 24 males or 24 females for one preparation from compounds 2, 15, 23, 34, 37 investigated in one dose.
Two doses of preparations used in the experiments: 50 mg/kg and 500 mg/kg. Before the administration, the suppositories were softened by heating in a glass water bath at a temperature of 38-39° C., the soft mass was collected in tuberculin syringe in a volume of 1 ml, a needle with oliva was attached to the syringe, and the preparatory mass was introduced into the rectum of the animal for a depth of 1.5-2.0 cm. The animals of the control group were administered with sterile medical liquid paraffin in a volume corresponding to the volume of the investigated suppository. A complete course of administration of drugs to the animals was two months. A complex of laboratory diagnostic investigations was carried out one month after the beginning of the administration of the preparation to the animal—in a middle of the course (8 animals), two months after ending the course (8 animals) and three months after ending the recovery period of one month (8 animals). The mass of the body of the rats in the first month of administration of the preparation was determined weekly, and then once in two weeks. On the basis of the dynamics of an index of the mass of the animal body, the volume of preparation being administered was corrected taking into account the test dose.

[3] = suppositories 50 mg/kg, 1 month
[4] = suppositories 50 mg/kg, 2 months
[5] = suppositories 500 mg/kg, 1 month
[6] = suppositories 500 mg/kg, 2 months

Compound: O=c1[nH][nH]c(=O)c2nccnc12.[Na] [Compound 26, sodium salt of pyrazine[2,3-d]-6H-pyridazine-5,8-dione]
half-wave potential more positive on reverse stroke than on forward stroke [1]: 27.0 mV

number of electrons participating in the reduction [1]: 3.5 | i, mkA (polarographic wave current) ([1]; pH 7.0): 0.30 ± 0.05 mkA | −E1/2, V (half-wave potential vs SCE) ([1]; pH 7.0): 0.08 ± 0.02 V | i, mkA (polarographic wave current) ([1]; pH 7.2): 0.26 ± 0.02 mkA | i, mkA (polarographic wave current) ([1]; pH 7.4): 0.30 ± 0.03 mkA | −E1/2, V (half-wave potential vs SCE) ([1]; pH 7.4): 0.085 ± 0.02 V | i, mkA (polarographic wave current) ([1]; pH 7.6): 0.30 ± 0.02 mkA | −E1/2, V (half-wave potential vs SCE) ([1]; pH 7.6): 0.09 ± 0.02 V | half-wave potential more positive on reverse stroke than on forward stroke [1]: 27.0 mV
Compound: O=c1[nH]n([C@@H]2O[C@H](CO)[C@@H](O)[C@H]2O)c(=O)c2ncnc(O)c12.[Na] [Compound 33, sodium salt of 4-hydroxy-7-(β-D-ribofuranosile)pyrimido[4,5-d]-6H-pyridazine-5,8-dione]

Compound: O=C([O-])c1ncnc2c(=O)n([C@@H]3O[C@H](CO)[C@@H](O)[C@H]3O)[nH]c(=O)c12.[Na+] [Compound 34, sodium salt of 4-carboxy-7-(β-D-ribofuranosile)pyrimido[4,5-D]-6H-pyridazine-5,8-dione]
Average volume of erythrocytes [2, 3]: 81.6 ± 1.9 Mkm^3 | Coagulation, time [2, 3]: 148 ± 16 s | Eosinophiles [2, 3]: 3.5 ± 1.0% | Erythrocytes [2, 3]: 5.6 ± 0.1 mln/mm^3 | Haematocrite [2, 3]: 46.9 ± 1.1% | Hemoglobin [2, 3]: 10.6 ± 0.1 mmol/L | Leukocyte [2, 3]: 15.9 ± 1.3 thousand/mm^3 | REE [2, 3]: 1.8 ± 0.5 mm/h | Reticulocytes [2, 3]: 2.7 ± 0.1% | Stab neutrophil [2, 3]: 1.0 ± 0.4% | Thrombocytes [2, 3]: 670 ± 23 | Basophiles ([2]; suppositories 50 mg/kg): 0% | Juveniles ([2]; suppositories 50 mg/kg): 0% | Average volume of erythrocytes [2, 4]: 76.7 ± 1.9 Mkm^3 | Coagulation, time [2, 4]: 321 ± 10 s | Eosinophiles [2, 4]: 4.1 ± 0.4% | Erythrocytes [2, 4]: 6.1 ± 0.2 mln/mm^3 | Haematocrite [2, 4]: 47.5 ± 1.2% | Hemoglobin [2, 4]: 11.1 ± 0.2 mmol/L | Leukocyte [2, 4]: 17.8 ± 1.4 thousand/mm^3 | REE [2, 4]: 1.7 ± 0.3 mm/h | Reticulocytes [2, 4]: 2.9 ± 0.2% | Stab neutrophil [2, 4]: 1.8 ± 0.5% | Thrombocytes [2, 4]: 610 ± 15 | Average volume of erythrocytes [2, 5]: 84.1 ± 1.3 Mkm^3 | Eosinophiles [2, 5]: 3.0 ± 0.9% | Erythrocytes [2, 5]: 5.6 ± 0.2 mln/mm^3 | Haematocrite [2, 5]: 48.1 ± 1.5% | Hemoglobin [2, 5]: 10.6 ± 0.3 mmol/L | Leukocyte [2, 5]: 16.9 ± 1.0 thousand/mm^3 | REE [2, 5]: 2.0 ± 0.4 mm/h | Reticulocytes [2, 5]: 3.2 ± 0.2% | Stab neutrophil [2, 5]: 0.9 ± 0.2% | Thrombocytes [2, 5]: 682 ± 24 | Basophiles ([2]; suppositories 500 mg/kg): 0% | Juveniles ([2]; suppositories 500 mg/kg): 0% | Average volume of erythrocytes [2, 6]: 83.8 ± 1.5 Mkm^3 | Coagulation, time [2, 6]: 312 ± 9 s | Eosinophiles [2, 6]: 3.9 ± 1.4% | Erythrocytes [2, 6]: 6.6 ± 0.1 mln/mm^3 | Haematocrite [2, 6]: 53.1 ± 1.6% | Hemoglobin [2, 6]: 12.4 ± 0.4 mmol/L | Leukocyte [2, 6]: 22.1 ± 1.1 thousand/mm^3 | REE [2, 6]: 1.8 ± 0.2 mm/h | Reticulocytes [2, 6]: 3.5 ± 0.3% | Stab neutrophil [2, 6]: 1.4 ± 0.3% | Thrombocytes [2, 6]: 631 ± 26

Compound: COP(=O)(OC)C(C)(C)CC(C)=O [dimephosphon, dimethyl ester of 1,1-dimethyl-3-oxybuthyl of phosphonic acid, reference compound]
number of electrons participating in the reduction [1]: 1.6 | i, mkA (polarographic wave current) ([1]; pH 7.0): 0.10 ± 0.03 mkA | −E1/2, V (half-wave potential vs SCE) ([1]; pH 7.0): 0.175 ± 0.01 V | i, mkA (polarographic wave current) ([1]; pH 7.2): 0.12 ± 0.03 mkA | −E1/2, V (half-wave potential vs SCE) ([1]; pH 7.2): 0.17 ± 0.02 V | i, mkA (polarographic wave current) ([1]; pH 7.4): 0.11 ± 0.02 mkA | −E1/2, V (half-wave potential vs SCE) ([1]; pH 7.4): 0.18 ± 0.01 V | i, mkA (polarographic wave current) ([1]; pH 7.6): 0.11 ± 0.02 mkA | −E1/2, V (half-wave potential vs SCE) ([1]; pH 7.6): 0.18 ± 0.01 V | half-wave potential more positive on reverse stroke than on forward stroke [1]: 50.0 mV

number of electrons participating in the reduction [1]: 3.72 | i, mkA (polarographic wave current) ([1]; pH 7.0): 0.26 ± 0.04 mkA | −E1/2, V (half-wave potential vs SCE) ([1]; pH 7.0): 0.11 ± 0.02 V | i, mkA (polarographic wave current) ([1]; pH 7.2): 0.31 ± 0.02 mkA | −E1/2, V (half-wave potential vs SCE) ([1]; pH 7.2): 0.11 ± 0.03 V | i, mkA (polarographic wave current) ([1]; pH 7.4): 0.27 ± 0.03 mkA | −E1/2, V (half-wave potential vs SCE) ([1]; pH 7.4): 0.105 ± 0.01 V | i, mkA (polarographic wave current) ([1]; pH 7.6): 0.30 ± 0.01 mkA | −E1/2, V (half-wave potential vs SCE) ([1]; pH 7.6): 0.105 ± 0.02 V | half-wave potential more positive on reverse stroke than on forward stroke [1]: 25.0 mV
Compound: disodium salt of 3-Kap ? OKC ? -7-(β-D-ribofuranosile)pyrido[2,3-d]-6H-pyridazine-5,8-dione [Compound 5]

number of electrons participating in the reduction [1]: 3.72 | i, mkA (polarographic wave current) ([1]; pH 7.0): 0.32 ± 0.03 mkA | −E1/2, V (half-wave potential vs SCE) ([1]; pH 7.0): 0.16 ± 0.02 V | i, mkA (polarographic wave current) ([1]; pH 7.2): 0.33 ± 0.04 mkA | −E1/2, V (half-wave potential vs SCE) ([1]; pH 7.2): 0.19 ± 0.02 V | i, mkA (polarographic wave current) ([1]; pH 7.4): 0.34 ± 0.03 mkA | −E1/2, V (half-wave potential vs SCE) ([1]; pH 7.4): 0.175 ± 0.01 V | i, mkA (polarographic wave current) ([1]; pH 7.6): 0.34 ± 0.02 mkA | −E1/2, V (half-wave potential vs SCE) ([1]; pH 7.6): 0.16 ± 0.015 V | half-wave potential more positive on reverse stroke than on forward stroke [1]: 20.0 mV
Compound: potassium salt of 3-bromine-pyrazine[2,3-Cl]-6H-pyridazine-5,8-dione [Compound 27]

number of electrons participating in the reduction [1]: 3.72 | i, mkA (polarographic wave current) ([1]; pH 7.0): 0.26 ± 0.04 mkA | −E1/2, V (half-wave potential vs SCE) ([1]; pH 7.0): 0.11 ± 0.02 V | i, mkA (polarographic wave current) ([1]; pH 7.2): 0.31 ± 0.02 mkA | −E1/2, V (half-wave potential vs SCE) ([1]; pH 7.2): 0.11 ± 0.03 V | i, mkA (polarographic wave current) ([1]; pH 7.4): 0.27 ± 0.03 mkA | −E1/2, V (half-wave potential vs SCE) ([1]; pH 7.4): 0.105 ± 0.01 V | i, mkA (polarographic wave current) ([1]; pH 7.6): 0.30 ± 0.01 mkA | −E1/2, V (half-wave potential vs SCE) ([1]; pH 7.6): 0.105 ± 0.02 V | half-wave potential more positive on reverse stroke than on forward stroke [1]: 25.0 mV
Compound: sodium salt of 7-(β-O-ribofuranosile)pyrido[2,3-1]-6H-pyridazine-5,8-dione sodium salt [Compound 1]
